# In US11896615B2, “Immunotherapy methods and compositions involving tryptophan metabolic pathway modulators” (Juno Therapeutics, Inc., priority 2016, dated 2024):
# Entries after “also recorded” stand apart in the source; their conditions may differ.
# Columns and labels:
# [1] = system: anti-CD19 CAR-expressing T cells; test: Effect of tryptophan metabolites on CAR T proliferation with IDO1- target cells; format: cell-based, human; conditions: 96 hours; for CAR T cell proliferation: CD19.Daudi target cells, 0 to 100 μM; for CAR T cell numbers (CD3+ cells per well): CD19.K562 target cells, 6.25 to 100 μM
# Procedure: Cells were stained for surface expression of CD4 and CD8. Proliferation of T cell populations was determined by flow cytometry, based on the extent of dilution of the CellTrace™ violet dye. […] The number of CD3^+ cells per well was determined using CountBright beads.
# [2] = system: anti-CD19 CAR-expressing T cells; test: Proliferation of anti-CD19 CAR T cells co-cultured with IDO1+ CD19.A549 cells (CellTrace violet dilution, bead counts, microscopy); format: cell-based, human
# Procedure: Cells were stained for expression of CD4 and CD8 and proliferation of T cell populations determined by flow cytometry, based on the extent of dilution of the CellTrace™ Violet dye.
# Similar methods were used to assess proliferation of anti-CD19 CAR-expressing T cells generated from three different healthy donors following co-culture with CD19-expressing A549 target cells (CD19.A549).
# The number of CAR T cells in each well was determined using CountBright Absolute Counting beads.
# (§1) Similar methods were used to assess the effect of the IDO1 inhibitor on proliferation of CAR-expressing T cells following co-culture of anti-CD19 CAR-expressing cells with either IDO1^+ cells (A549.CD19) or IDO1^− cells (K562.CD19). […] The average number of CAR T cell divisions was calculated based on peaks in dye dilution, and proliferation of CD4^+ and CD8^+ subsets was compared.
# Cells were visualized at 72 hours and 120 hours.
# [3] = system: anti-CD19 CAR-expressing T cells; test: Cytokine release in co-culture supernatants; format: cell-based, human; conditions: for GM-CSF level in supernatant / IFNγ level in supernatant / TNFα level in supernatant: epacadostat 10, 100 or 1000 nM or supplemental tryptophan, compared to no addition; for IL-2 levels in supernatant: for up to 72 hours, levels decreased at 96 hours
# [4] = system: anti-CD19 CAR-expressing T cells; test: Sustained expansion of anti-CD19 CAR T cells (% confluency over time); format: cell-based, human
# Procedure: Expansion of anti-CD19 expressing CAR cells following co-culture with A549 adenocarcinoma human alveolar basal epithelial cells transduced with human CD19 (CD19.A549 cells) was assessed for over 10 days. […] Expansion was assessed based on % confluency in the culture as determined over time. […] The IDO1 inhibitor-promoted increase in expansion was sustained for more than 10 days in culture. The results were consistent with a conclusion that IDO-upregulation and/or IDO-dependent signaling can occur or be promoted following CAR-T antigen-specific activation and result in dampening of proliferation of the CAR-T cells, e.g., over a 5- or 10-day period, and that inhibition of IDO can in some contexts rescue such inhibition.
# [5] = system: anti-ROR1 CAR-expressing T cells; test: Proliferation of anti-ROR1 CAR T cells co-cultured with CD19.A549 cells; format: cell-based, human; conditions: 250 nM, E:T 3:1, 96 hours, compared to absence of inhibitor
# Source text: Similar methods were used to assess the effect of the IDO1 inhibitor on proliferation of anti-ROR1 CAR-expressing T cells cultured in the presence of antigen-expressing target cells.
# CAR T cells = test: CAR T cell proliferation in the presence of IDO1+ HS-5 bystander cells; format: cell-based, human; conditions: with or without HS-5 cells, 96 hours, various concentrations
# Procedure: Proliferation of CAR T cells in the presence of IDO1-expressing bone marrow stromal cells or an IDO1 inhibitor was determined.
# [6] = system: anti-CD19 CAR-expressing T cells; test: Proliferation of anti-CD19 CAR T cells co-cultured with IDO1- target cells (CD19.Daudi, K562.CD19); format: cell-based, human; conditions: co-culture with IDO1- cells, various concentrations
# Procedure: as §1
# [7] = system: CD4+ and CD8+ CAR-expressing T cells; test: CD25 surface expression on CD4+ and CD8+ CAR-expressing T cells (flow cytometry); format: cell-based, human
# CD19.A549 = test: Cytolytic activity of anti-CD19 CAR T cells (Incucyte, NucRed-labeled targets); format: cell-based, human; conditions: 0 to 1000 nM, 0.25:1 E:T, up to approximately 340 hours
# Procedure: Lysis of target cells was measured over time using the Incucyte quantitative cell analysis system (Essen BioScience) by assessing the staining intensity of cells for the NucRed dye.
# [8] = system: anti-CD19 CAR-expressing T cells; test: Recovery from tryptophan starvation; format: cell-based, human; conditions: supplemental tryptophan added after starvation, out to 96 hours
# Procedure: Anti-CD19 CAR-expressing T cells, generated as described in Example 1, were cultured in tryptophan starvation conditions (chemically defined tryptophan-free media) for 24, 48, 72 or 96 hours (24, 48, 72 or 96 hr Trp starv.). After tryptophan starvation for the indicated time, supplemental tryptophan was added to the cultures. The cells then were cultured in the presence of tryptophan until the cells were harvested at 24, 48, 72 or 96 hours. As a control, reflecting tryptophan sufficient conditions, cells were cultured in tryptophan-sufficient media for each respective time period (complete media). The number of CD3^+ cells per well was assessed. Intracellular production of interferon-gamma (IFNγ) and tumor necrosis factor alpha (TNFα) was assessed by intracellular cytokine staining, and the percentage of CD4+ or CD8+ cells positive for cytokine accumulation was determined.
# [9] = system: anti-CD19 CAR-expressing cells; test: Intracellular cytokines after re-exposure to antigen following tryptophan starvation; format: cell-based, human; conditions: tryptophan supplementation in the subsequent culture
# Procedure: Effect of tryptophan starvation on CAR-T function (proliferation, cytokine production) following subsequent re-exposure to antigen was assessed. […] The cells were harvested, counted and re-cultured with fresh CD19-expressing A549 target cells (CD19.A549) in tryptophan-depleted media (media from the “no tx” cultures at 96 hours) with or without supplemented tryptophan. Intracellular levels of interferon-gamma (IFNγ) and interlekukin-2 (IL-2) were assessed by intracellular cytokine staining, and the percentage of CD4+ or CD8+ cells deemed positive for the given intracellular cytokine production was determined.
# [10] = system: anti-CD19 CAR-expressing T cells; test: CAR T cell counts and proliferation with IDO1 inhibitor or supplemental tryptophan in co-culture with CD19.A549; format: cell-based, human; conditions: 5 μg/mL added every 24 hours, 96 hours with IDO1+ A549.CD19, compared to no treatment
# Procedure: Proliferation was assessed by flow cytometry, and CAR+ T cell count in each well was determined.
# CAR-expressing T cells = test: CAR T function in tryptophan-depleted media with supplemental tryptophan; format: cell-based, human
# Procedure: Effects of tryptophan starvation on antigen-induced function of CAR-T cells were assessed. CAR-expressing T cells labeled with CellTrace™ violet were co-cultured with target cells (K562 human myelogenous leukemia target cells transduced with CD19 (CD19.K562)) that had been observed not to induce IDO1-expression, in tryptophan-depleted media, with or without the addition of various concentrations of supplemental tryptophan. Tryptophan-containing media was used as a control (Trp Control). Target cell count and proliferation (assessed by flow cytometry via CTV dye dilution; MFI=mean fluorescence intensity).
# A similar study was carried out to assess effects of tryptophan-starvation, but in which CAR-mediated function was induced using an agonistic anti-idiotype antibody specific for the CAR as opposed to antigen-expressing target cells. Anti-CD19 CAR-expressing cells, generated substantially as described in Example 1, were stimulated for 96 hours using plate-bound anti-idiotypic agonistic antibody, in tryptophan-depleted media, alone or supplemented with various concentrations of tryptophan. The number of CD3^+ cells per well was determined. Representative results from exemplary studies are shown in FIG. 15D and FIG. 15E (results from three different donors). […]
# [11] = system: JeKo-1, Daudi, Raji and Nalm-6 cells; test: IDO1 expression in other CD19+ tumor cell lines after IFNγ incubation; format: cell-based, human; conditions: incubation with IFNγ under similar conditions
# Procedure: (§2) A549 adenocarcinoma human alveolar basal epithelial cells transduced with human CD19 (CD19.A549 cells, which may also referred to as A549.CD19 cells) were assessed for expression of indoleamine-pyrrole 2,3-dioxygenase 1 (IDO1) following stimulation with interferon-gamma (IFNγ). CD19.A549 cells were stimulated with IFNγ for 24 or 48 hours and IDO1 levels were assessed by flow cytometry using an anti-IDO antibody. […] Increased IDO1 expression was not detected in other CD19^+ tumor cell lines in this assay, including JeKo-1, Daudi, Raji and Nalm-6 cells, following incubation with IFNγ under similar conditions.
# CD19.A549 cells = test: IDO1 expression in CD19.A549 cells after IFNγ stimulation (flow cytometry); format: cell-based, human
# Procedure: as §2
# CD19.A549 cells were cultured with various concentrations of recombinant human IFNγ.
# [12] = system: HS-5 human bone marrow stromal cells; test: IDO1 expression in HS-5 bone marrow stromal cells after IFNγ; format: cell-based; conditions: 20 ng/mL recombinant human IFNγ, 24 hours
# Procedure: Expression level of Indoleamine-Pyrrole 2,3-Dioxygenase 1 (IDO1) was determined in bone marrow stromal cells upon stimulation by interferon-gamma (IFNγ) or with co-incubation with CAR-expressing T cells. Bone marrow stromal cells are exemplary of bystander cells, e.g., non-tumor cells, present in the TME.
# HS-5 human bone marrow stromal cells were stimulated with 20 ng/mL recombinant human IFNγ for 24 hours.
# dendritic cells = test: IDO1 expression in dendritic cells after IFNγ and/or LPS stimulation; format: cell-based; conditions: dendritic cells (DC), 24 hours stimulation
# Procedure: To assess whether myeloid cells present in the TME, including tumor-associated macrophages and dendritic cells, can be induced to express IDO1, the expression level of IDO1 in dendritic cells and macrophages upon stimulation by interferon-gamma (IFNγ) or lipopolysaccharide (LPS) was determined by flow cytometry. Dendritic cells were subject to monoculture with GM-CSF and interleukin-4 (IL-4), and macrophages were subject to monoculture with M-CSF, for 6 days. After monoculture, the cells were stimulated with IFNγ and/or LPS for 24 hours, and IDO1 expression was determined by flow cytometry.
# [13] = supplemental tryptophan or 100 nM or 1000 nM epacadostat, co-culture with CD19.A549
molecule,measurement,setting,value
"Nc1c(O)cccc1C(=O)O [3-HAA, 3-hydroxyanthranilic acid]",CAR T cell proliferation,[1],did not inhibit CAR T cell proliferation
same,CAR T cell numbers (CD3+ cells per well),[1],did not substantially affect CAR T cell numbers
Nc1ccccc1C(=O)C[C@H](N)C(=O)O [L-Kynurenine],CAR T cell proliferation,[1],did not inhibit CAR T cell proliferation
same,CAR T cell numbers (CD3+ cells per well),[1],did not substantially affect CAR T cell numbers
"NS(=O)(=O)NCCNc1nonc1C(=NO)Nc1ccc(F)c(Br)c1 [epacadostat, 4-({2-[(aminosulfonyl)amino]ethyl}amino)-N-(3-bromo-4-fluorophenyl)-N′-hydroxy-1,2,5-oxadiazole-3-carboximidamide]",number of CAR T cells per well,"[2]; 250 nM, 96 hours, three donors, compared to absence of inhibitor",higher number CAR T cells
same,CAR-expressing T cells visualized by microscopy,"[2]; 1 μM, 120 hours, 1:1 E:T, compared to no inhibitor",large increase in CAR-expressing T cells
same,EC50,"[2]; Homo sapiens, co-culture with A549 cells (IDO1+), 1:1 E:T, read-out: estimated EC50 (CAR T proliferation)",~223 nM
same,proliferation of CD4+ and CD8+ CAR-expressing T cells,"[2]; co-culture with IDO1+ CD19.A549 cells, 96 hours, various concentrations",dose-dependent increase in proliferation; also recorded: increased proliferation
same,TNFα production,"[3]; 48 hours, 1:1 E:T with CD19.A549, various concentrations",increased TNFα production
same,GM-CSF level in supernatant,[3],increased level
same,IFNγ level in supernatant,[3],increased level
same,TNFα level in supernatant,[3],increased level
same,IL-2 levels in supernatant,[3],increased
same,expansion of CAR-expressing T cells (% confluency),"[4]; 0 to 1000 nM, up to approximately 340 hours",increasing expansion of CAR-expressing T cells
same,duration of inhibitor-promoted increase in expansion,[4]; in culture with CD19.A549,over 10 days
same,number of CAR T cells,[5],higher number of CAR T cells
same,proliferation of CAR T cells,CAR T cells,not substantially affected
same,proliferation of CD4+ and CD8+ CAR-expressing T cells,[6],not when co-cultured with IDO1^− cells (Daudi)
same,CD25 surface expression (MFI),"[7]; 96 hours co-culture with IDO1+ CD19.A549 cells, 1:1 E:T",reduced
same,CD25 surface expression,[7]; 96 hours co-culture with IDO1- CD19.Daudi cells,not affected
same,CD25 surface expression (MFI),[7]; [13],reduced
same,NucRed dye intensity of target cells (AUC),CD19.A549,dose-dependent reduction of NucRed dye intensity
N[C@@H](Cc1c[nH]c2ccccc12)C(=O)O [tryptophan],GM-CSF level in supernatant,[3],increased level
same,IFNγ level in supernatant,[3],increased level
same,TNFα level in supernatant,[3],increased level
same,IL-2 levels in supernatant,[3],increased
same,proliferative capacity after tryptophan starvation,[8],did not completely restore proliferative capacity
same,"reduction in cytokine production (IFNγ, IL-2) after re-encounter with target cells",[9],partially restored
same,proliferation of CAR-T cells,[10],restored proliferation of the CAR-T cells
same,CD25 surface expression (MFI),[7]; [13],reduced
same,inhibitory effect of tryptophan starvation on antigen-specific function of CAR T cells,"CAR-expressing T cells; CD19.K562 target cells, tryptophan-depleted media",reversed
same,inhibition of CAR-mediated function by tryptophan starvation (CD3+ cells per well),"CAR-expressing T cells; plate-bound anti-idiotypic agonistic antibody, 96 hours",restored
"IFNγ: interferon-gamma (IFNγ), recombinant human",IDO1 expression,[11],not detected
same,IDO1 expression,"CD19.A549 cells; IFNγ stimulation for 24 and 48 hours, compared to unstimulated cells",increased expression of endogenous IDO1
same,IDO1 expression (MFI),CD19.A549 cells; various concentrations of recombinant human IFNγ,dose-responsive increase in IDO1 expression
same,IDO1 expression,[12],increase of IDO1 expression
same,IDO1 expression,dendritic cells,induced IDO1 expression
